Data: US20250188030A1, “Biphenyl and Phenylpyridine Compounds” (Pfizer Inc., priority 2023, published 2025)
Entries after “also recorded” stand apart in the source; their conditions may differ. Read-outs that look alike come from different tables or passages of the source.

What was measured:
MM.1S cells = experiment: MM1.S 10 Day Proliferation Assay (CellTiter-Glo); assay type: cell-based, Human; conditions: Homo sapiens, MM1.S, 240 h
Outline: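 MM.1S cells, 500/well in ultra-low-attachment plates, were pre-incubated 16 h, then exposed to a 10-point 1:3 dilution series (top 10 μM final, 0.1% DMSO) for 10 days at 37 °C, with compound-containing medium refreshed at day 5. Viability was read by CellTiter-Glo luminescence; IC50 came from four-parameter fit.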

KAT2B = KAT2B (Homo sapiens (Human), UniProt Q92831); experiment: KAT2B acetyltransferase biochemical assay (RapidFire mass spectrometry, AcCoA to CoA)
[1] = Metabolite profile in hepatocytes, recombinant human UGT enzymes, and dog plasma and urine; assay type: in vitro ADME; conditions: hepatocytes (mouse, dog, human), plasma and urine from dogs
Text: The metabolite profile of 2-(2′-cyclobutyl-3′-fluoro-6-{[(1R,3R)-3-{[(7S)-7-fluoro-5-azaspiro[3.4]octane-7-carbonyl]amino}cyclopentyl]oxy}[1, 1′-biphenyl]-3-yl)-2-methylpropanoic acid (Example A1) assessed in hepatocytes (mouse, dog, human), recombinant human UGT enzymes, and plasma and urine from dogs.
General methods/reviews of obtaining metabolite profile and identifying metabolites of a compound are described in: DAVLIE, 0., et al., “Assessment of Three Human in Vitro Systems in the Generation of Major Human Excretory and Circulating Metabolites,” Chemical Research in Toxicology, 2009, 22(2):357-368; KING, R., “Chapter Three—Biotransformations in Drug Metabolism.” Drug Metabolism Handbook: Concepts and Applications in Cancer Research, edited by Ala F. Nassar et al., Wiley, 2022, 17-38; WU, Y., et al., “Metabolite Identification in Preclinical and Clinical Phase of Drug Development,” Current Drug Metabolism, 2021, 22(11):838-857; GODZIEN, J., et al., “Chapter Fifteen—Metabolite Annotation and Identification.” Comprehensive Analytical Chemistry, Elsevier, 2018, 415-445.

H3K9AC (HT1080 cells) = experiment: H3K9AC Sandwich ELISA Assay in HT1080 cells (KAT2A primary cell-based screening assay); design: species or system Human; conditions: Homo sapiens, HT-1080, H3K9AC sandwich ELISA
Outline: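 Acetylated H3K9 quantified by luminescent sandwich ELISA (total H3 capture, H3K9ac detection) on HCl lysates of HT1080 cells. Cells had 24 h compound exposure at 37 °C, top concentration 10 µM, 10-point 3-fold series, 0.1% DMSO; IC50 from four-parameter fitting.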

KAT2A = KAT2A (Homo sapiens (Human), UniProt Q92830); experiment: KAT2A acetyltransferase biochemical assay (RapidFire mass spectrometry, AcCoA to CoA)
[2] = read-out: KAT2B Ki at 1 μM AcCoA, 1 μM AcCoA, 5 μM H3 1-21 peptide, 0.5 nM KAT2B, 90-minute reaction
[3] = read-out: KAT2A Ki at 1 μM AcCoA, 5 μM H3 1-21 peptide, 0.5 nM KAT2A, 90-minute reaction

Sequence of KAT2B (Q92831 2-832): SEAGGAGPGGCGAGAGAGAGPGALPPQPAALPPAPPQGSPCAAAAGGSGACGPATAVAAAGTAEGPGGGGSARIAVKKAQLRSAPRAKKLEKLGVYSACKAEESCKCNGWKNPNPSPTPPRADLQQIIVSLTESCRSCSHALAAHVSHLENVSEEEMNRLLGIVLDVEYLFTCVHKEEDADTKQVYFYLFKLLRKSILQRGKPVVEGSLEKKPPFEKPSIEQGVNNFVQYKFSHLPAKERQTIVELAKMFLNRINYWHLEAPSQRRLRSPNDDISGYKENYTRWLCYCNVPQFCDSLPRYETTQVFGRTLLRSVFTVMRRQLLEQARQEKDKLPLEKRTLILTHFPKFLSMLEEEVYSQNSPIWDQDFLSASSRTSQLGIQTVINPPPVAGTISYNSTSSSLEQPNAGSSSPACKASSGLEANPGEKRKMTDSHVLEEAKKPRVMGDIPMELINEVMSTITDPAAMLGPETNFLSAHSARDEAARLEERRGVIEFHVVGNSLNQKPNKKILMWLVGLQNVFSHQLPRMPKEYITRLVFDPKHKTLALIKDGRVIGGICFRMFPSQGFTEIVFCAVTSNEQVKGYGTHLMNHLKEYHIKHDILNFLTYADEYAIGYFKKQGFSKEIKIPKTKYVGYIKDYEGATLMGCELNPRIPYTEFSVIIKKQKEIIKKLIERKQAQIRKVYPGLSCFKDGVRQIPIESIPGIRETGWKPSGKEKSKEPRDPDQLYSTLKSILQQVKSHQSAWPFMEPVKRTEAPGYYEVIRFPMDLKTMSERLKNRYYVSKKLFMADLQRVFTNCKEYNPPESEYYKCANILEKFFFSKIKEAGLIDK
Sequence of KAT2A (Q92830 whole entry): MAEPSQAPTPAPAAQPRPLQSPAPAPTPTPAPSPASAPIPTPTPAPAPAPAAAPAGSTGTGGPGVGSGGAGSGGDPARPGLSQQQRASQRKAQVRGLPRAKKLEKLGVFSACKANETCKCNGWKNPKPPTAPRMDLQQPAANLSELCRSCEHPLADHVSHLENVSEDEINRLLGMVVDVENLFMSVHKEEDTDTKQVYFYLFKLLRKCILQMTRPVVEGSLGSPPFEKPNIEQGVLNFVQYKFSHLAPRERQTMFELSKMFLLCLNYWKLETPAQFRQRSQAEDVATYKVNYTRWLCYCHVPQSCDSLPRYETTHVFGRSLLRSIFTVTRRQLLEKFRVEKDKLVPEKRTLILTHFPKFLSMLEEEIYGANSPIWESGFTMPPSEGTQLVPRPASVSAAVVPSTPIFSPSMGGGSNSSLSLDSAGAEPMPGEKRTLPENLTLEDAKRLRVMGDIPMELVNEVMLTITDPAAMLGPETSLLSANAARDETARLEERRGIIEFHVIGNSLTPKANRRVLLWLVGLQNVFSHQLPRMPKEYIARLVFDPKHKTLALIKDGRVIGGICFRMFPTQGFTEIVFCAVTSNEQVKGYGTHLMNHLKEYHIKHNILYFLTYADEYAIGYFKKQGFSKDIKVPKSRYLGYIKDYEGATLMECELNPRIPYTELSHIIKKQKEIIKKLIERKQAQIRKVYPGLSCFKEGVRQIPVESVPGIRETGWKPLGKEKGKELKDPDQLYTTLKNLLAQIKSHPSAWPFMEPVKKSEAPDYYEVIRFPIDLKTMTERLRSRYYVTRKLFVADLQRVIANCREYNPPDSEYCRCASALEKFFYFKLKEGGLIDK

| IC50 (MM.1S cells) | Ki (KAT2B; [2]) | IC50 (H3K9AC (HT1080 cells)) | Ki (KAT2A; [3]) | Ki (KAT2B) | Ki (KAT2A; KAT2A Ki at 1 μM AcCoA, 5 μM H3 1-21 peptide, 0.5 nM KAT2A, 90-minute reaction) | SMILES | additional metabolites observed [1] | most significant metabolite observed [1] |
| --- | --- | --- | --- | --- | --- | --- | --- | --- |
| 15.9 nM | 0.21 nM | 8.38 nM | 0.08 nM |  |  | CN1CC(C)(C)C[C@H]1C(=O)N[C@@H]1CC[C@@H](Oc2ccc(C(C)(C)C(=O)NS(=O)(=O)N(C)C)cc2-c2cccc(F)c2C2CCC2)C1 [Example E4, N-{(1R,3R)-3-[(2′-cyclobutyl-5-{1-[(dimethylsulfamoyl)amino]-2-methyl-1-oxopropan-2-yl}-3′-fluoro[1,1′-biphenyl]-2-yl)oxy]cyclopentyl}-1,4,4-trimethyl-L-prolinamide] |  |  |
| 8.43 nM |  | 14.9 nM |  | 0.74 nM | 0.41 nM | CN1CC(C)(C)C[C@H]1C(=O)N[C@@H]1CC[C@@H](Oc2ccc(-c3cn(C)nc3C(=O)O)cc2-c2cccc(F)c2C2CCC2)C1 [Example J1, 4-[2′-cyclobutyl-3′-fIuoro-6-({(1R,3R)-3-[(1,4,4-trimethyl -L-prolyl)amino]cyclopentyl}oxy)[1,1′-biphenyl]-3-yl]-1-methyl-1H-pyrazole-3-carboxylic acid] |  |  |
| 45.6 nM | 0.94 nM | 4.56 nM | 0.7 nM |  |  | CN1CC(C)(C)C[C@H]1C(=O)N[C@H]1C[C@H](Oc2ccc(CC(=O)O)cc2-c2cccc(F)c2C2CCC2)C[C@H]1O [Example K4, [2′-cyclobutyl-3′-fluoro-6-({(1S,3R,4S)-3-hydroxy-4-[(1,4,4-trimethyl-L-prolyl)amino]cyclopentyl}oxy)[1,1′-biphenyl]-3-yl]acetic acid] |  |  |

Further lines, the molecule ahead of its results:

| SMILES | IC50 (MM.1S cells) | Ki (KAT2B; [2]) | IC50 (H3K9AC (HT1080 cells)) | Ki (KAT2A; [3]) | Ki (KAT2B) | Ki (KAT2A; KAT2A Ki at 1 μM AcCoA, 5 μM H3 1-21 peptide, 0.5 nM KAT2A, 90-minute reaction) | additional metabolites observed [1] | most significant metabolite observed [1] |
| --- | --- | --- | --- | --- | --- | --- | --- | --- |
| CC(C)(C(=O)O)c1ccc(O[C@@H]2CC[C@@H](NC(=O)[C@@]3(F)CNC4(CCC4)C3)C2)c(-c2cccc(F)c2C2CCC2)c1 [Example A1, 2-(2′-cyclobutyl-3′-fluoro-6-{[(1R,3R)-3-{[(7S)-7-fluoro-5-azaspiro[3.4]octane-7-carbonyl]amino}cyclopentyl]oxy}[1,1′-biphenyl]-3-yl)-2-methylpropanoic acid] | 45.3 nM | 2.65 nM | 8.16 nM | 0.47 nM |  |  | CYP-mediated oxidation on the cyclobutane ring, the gem-dimethyl group and/or one or both of the biaryl rings; also recorded: direct glucose conjugate from UGT enzymes or chemical reaction | glucuronidation of the carboxylic acid group (Acyl glucuronide) |
| CN1CC(C)(C)C[C@H]1C(=O)N[C@@H]1CC[C@@H](Oc2ccc(CC(=O)NS(=O)(=O)N(C)C)cc2-c2cccc(F)c2C2CCC2)C1 [Example E3, N-{(1R,3R)-3-[(2′-cyclobutyl-5-{2-[(dimethylsulfamoyl)amino]-2-oxoethyl}-3′-fluoro[1,1′-biphenyl]-2-yl)oxy]cyclopentyl}-1,4,4-trimethyl-L-prolinamide] | 3.82 nM | 0.02 nM | 0.84 nM | 0.03 nM |  |  |  |  |
